According to the supplement of paper PMC10307832:

How the values were obtained:
Test in all cases: relative viability (nuclei count vs DMSO), 5 days (fraction); higher = more cells survive
AZ505 + Foretinib = compound: C1CCC(CC1)N(CCNCCC2=C3C(=C(C=C2)O)NC(=O)CO3)C(=O)CCNCCC4=CC(=C(C=C4)Cl)Cl [AZ505] + COc1cc2c(Oc3ccc(NC(=O)C4(C(=O)Nc5ccc(F)cc5)CC4)cc3F)ccnc2cc1OCCCN1CCOCC1 [Foretinib] (partner 0.25 µM)
Outline: (§1)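 Relative viability divides the nuclei count in treated wells by that in vehicle wells. Lung cancer cell lines were seeded in 1536-well plates, dosed by pin tool the next day, and fixed and stained after 5 days in one step with final 0.05% Triton X-100, 1% formaldehyde and 1 ug/ml Hoechst. Dosing was a single drug or a fixed anchor-drug dose plus five library-drug doses (not always all listed) in √10 steps, and values are medians of duplicate plates imaged at 4×.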

AZ505 + Lapatinib = compound: C1CCC(CC1)N(CCNCCC2=C3C(=C(C=C2)O)NC(=O)CO3)C(=O)CCNCCC4=CC(=C(C=C4)Cl)Cl [AZ505] + CS(=O)(=O)CCNCc1ccc(-c2ccc3ncnc(Nc4ccc(OCc5cccc(F)c5)c(Cl)c4)c3c2)o1 [Lapatinib] (partner 2 µM)
Outline: as §1

Dactolisib + OSI-027 = compound: Cn1c(=O)n(-c2ccc(C(C)(C)C#N)cc2)c2c3cc(-c4cnc5ccccc5c4)ccc3ncc21 [Dactolisib] + COc1cccc2cc(-c3nc([C@H]4CC[C@H](C(=O)O)CC4)n4ncnc(N)c34)[nH]c12 [OSI-027] (partner 0.5 µM)
Outline: as §1

Dactolisib + AZD7762 = compound: Cn1c(=O)n(-c2ccc(C(C)(C)C#N)cc2)c2c3cc(-c4cnc5ccccc5c4)ccc3ncc21 [Dactolisib] + NC(=O)Nc1cc(-c2cccc(F)c2)sc1C(=O)N[C@H]1CCCNC1 [AZD7762] (partner 0.2 µM)
Outline: as §1

Cell Line | relative viability (AZ505 + Foretinib; first compound 0.08 µM) | relative viability (AZ505 + Foretinib; first compound 0.253 µM) | relative viability (AZ505 + Foretinib; first compound 0.8 µM) | relative viability (AZ505 + Foretinib; first compound 2.53 µM) | relative viability (AZ505 + Foretinib; first compound 8 µM) | relative viability (AZ505 + Lapatinib; first compound 0.08 µM) | relative viability (AZ505 + Lapatinib; first compound 0.253 µM) | relative viability (AZ505 + Lapatinib; first compound 0.8 µM) | relative viability (AZ505 + Lapatinib; first compound 2.53 µM) | relative viability (AZ505 + Lapatinib; first compound 8 µM) | relative viability (Dactolisib + OSI-027; first compound 0.002 µM) | relative viability (Dactolisib + OSI-027; first compound 0.006325 µM) | relative viability (Dactolisib + OSI-027; first compound 0.02 µM) | relative viability (Dactolisib + OSI-027; first compound 0.06325 µM) | relative viability (Dactolisib + OSI-027; first compound 0.2 µM) | relative viability (Dactolisib + AZD7762; first compound 0.002 µM) | relative viability (Dactolisib + AZD7762; first compound 0.006325 µM) | relative viability (Dactolisib + AZD7762; first compound 0.02 µM) | relative viability (Dactolisib + AZD7762; first compound 0.06325 µM) | relative viability (Dactolisib + AZD7762; first compound 0.2 µM)
201T | 1.01 | 1.14 | 1.07 | 1.06 | 1.19 | 1 | 1.04 | 0.957 | 1.04 | 1.01 | 0.715 | 0.749 | 0.682 | 0.747 | 0.509 | 0.578 | 0.64 | 0.613 | 0.464 | 0.402
A549 | 0.895 | 1.06 | 0.812 | 1.03 | 1.06 | 0.916 | 0.931 | 0.966 | 0.929 | 0.955 | – | – | – | – | – | – | – | – | – | –
A-427 | 1.05 | 1.04 | 0.997 | 1.1 | 1.13 | 1.1 | 1.07 | 0.961 | 1.03 | 0.998 | 0.59 | 0.461 | 0.47 | 0.375 | 0.419 | 0.749 | 0.698 | 0.688 | 0.498 | 0.306
ABC-1 | 0.856 | 1.21 | 0.976 | 1.02 | 0.863 | – | 1.1 | 1.11 | 1.12 | 1.23 | 0.494 | 0.519 | 0.569 | 0.43 | 0.349 | 0.925 | 0.805 | 0.738 | 0.761 | 0.557
BEN | 0.612 | 0.644 | 0.693 | 0.675 | 0.833 | 0.645 | 0.69 | 0.728 | 0.718 | 1.02 | 0.302 | 0.33 | 0.302 | 0.32 | 0.315 | 0.781 | 0.645 | 0.547 | 0.588 | 0.41
CAL-12T | 1.03 | 1.11 | 1.18 | 1.22 | 1.36 | 0.637 | 0.534 | 0.537 | 0.625 | 0.728 | 0.894 | 0.635 | 0.521 | 0.318 | 0.239 | 0.573 | 0.691 | 0.638 | 0.424 | 0.357
COR-L23 | 0.878 | 0.928 | 0.909 | 0.863 | 0.975 | 0.873 | 0.987 | 0.878 | 0.82 | 0.74 | 0.917 | 0.796 | 0.59 | 0.289 | 0.259 | – | – | – | – | –
COR-L 105 | 0.76 | 1.29 | 0.981 | 0.862 | 0.903 | 0.344 | 0.302 | 0.349 | 0.339 | 0.372 | 0.776 | 0.619 | 0.478 | 0.385 | 0.314 | – | – | – | – | –
Calu-6 | 0.814 | 0.901 | 0.819 | 0.799 | 0.892 | 0.925 | 1.17 | 1.07 | 1.02 | 1.11 | – | – | – | – | – | – | – | – | – | –
ChaGo-K-1 | 0.936 | 1.11 | 0.928 | 0.951 | 0.91 | – | – | – | – | – | 0.538 | 0.528 | 0.571 | 0.537 | 0.609 | 0.913 | 0.845 | 0.811 | 0.877 | 0.814
EBC-1 | 0.0937 | 0.0894 | 0.0949 | 0.0895 | 0.121 | 0.267 | 0.243 | 0.194 | 0.19 | 0.219 | – | – | – | – | – | – | – | – | – | –
EKVX | 0.586 | 0.801 | 0.827 | 0.433 | 0.75 | 0.225 | 0.184 | 0.175 | 0.185 | 0.214 | 0.678 | 0.655 | 0.697 | 0.536 | 0.389 | 0.693 | 0.73 | 0.659 | 0.589 | 0.303
EMC-BAC-2 | 0.95 | 0.99 | 0.993 | 0.985 | 0.961 | 0.819 | 0.905 | 0.814 | 0.837 | 0.904 | 0.395 | 0.439 | 0.405 | 0.346 | 0.296 | 1.14 | 0.955 | 0.984 | 0.662 | 0.607
HCC-44 | – | – | – | – | – | 0.926 | 1.09 | 0.974 | 1.11 | 1.06 | 0.492 | 0.559 | 0.634 | 0.439 | 0.466 | 1.03 | 1.03 | 0.951 | 1.07 | 1.14
IA-LM | 0.921 | 1.21 | 1.07 | 1.12 | 1.42 | 0.629 | 0.935 | 0.912 | 0.656 | 0.884 | – | – | – | – | – | – | – | – | – | –
LCLC-103H | 0.734 | 0.857 | 0.729 | 0.848 | 0.715 | – | – | – | – | – | 0.509 | 0.5 | 0.465 | 0.519 | 0.431 | 0.797 | 0.781 | 0.703 | 0.582 | 0.467
